From patent US20250195536A1, “BICYCLOOCTANE KRAS INHIBITORS” (Incyte Corporation, priority 2023, published 2025)

Tests used:
KRAS G12D = KRAS G12D (Homo sapiens, UniProt P01116, G12D); test: GDP-GTP exchange assay (KRAS G12D); type: biochemical; settings: bodipy-GDP/GppNHp exchange with SOS1; 4 h pre-incubation, 2 h reaction;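 also: one dagger IC50 up to 100 nM and two daggers above 100 nM up to 1 μM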
How it was run: (§1)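 Bodipy-GDP-loaded KRAS (2.5 nM final) was pre-incubated 4 h at r.t. with inhibitor in Hepes pH 7.5 buffer with MgCl2, then exchange started with GppNHp (500 μM) and SOS1 (150 nM) final. Fluorescence (ex 485/em 520 nm) read after 2 h for G12D, 3 h for G12V; IC50 from four-parameter logistic fit.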

KRAS G12V = KRAS G12V (Homo sapiens, UniProt P01116, G12V); test: GDP-GTP exchange assay (KRAS G12V); type: biochemical; settings: bodipy-GDP/GppNHp exchange with SOS1; 3 h incubation after GppNHp-SOS1;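 also: one dagger IC50 up to 100 nM and two daggers above 100 nM up to 1 μM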
KRAS G12V, sequence (P01116 1-188 isoform P01116-2 G12V): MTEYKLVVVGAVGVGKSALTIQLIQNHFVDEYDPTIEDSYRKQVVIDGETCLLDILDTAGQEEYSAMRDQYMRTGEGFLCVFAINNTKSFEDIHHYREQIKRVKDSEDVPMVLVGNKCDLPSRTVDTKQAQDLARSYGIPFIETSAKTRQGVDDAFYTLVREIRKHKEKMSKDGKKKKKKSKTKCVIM
How it was run: as §1

[1] = Caco2 assay (permeability, Papp A-B); type: in vitro ADME; settings: human, Caco-2, absorptive direction (A-B), 50 μM test compound, 4% BSA in receiver
Protocol: Caco-2 cells are grown at 37° C. in an atmosphere of 5% CO2 in DMEM growth medium supplemented with 10% (v/v) fetal bovine serum, 1% (v/v) nonessential amino acids, penicillin (100 U/mL), and streptomycin (100 μg/mL). Confluent cell monolayers are subcultured every 7 days or 4 days for Caco-2 by treatment with 0.05% trypsin containing […]. Caco-2 cells are seeded in 96-well Transwell plates. The seeding density for Caco-2 cells is 14,000 cells/well. DMEM growth medium is replaced every other day after seeding. Cell monolayers are used for transport assays between 22 and 25 days for Caco-2 cells.
Cell culture medium is removed and replaced with HBSS. To measure the TEER, the HBSS is added into the donor compartment (apical side) and receiver compartment (basolateral side). The TEER is measured by using a REMS Autosampler to ensure the integrity of the cell monolayers. Caco-2 cell monolayers with TEER values 300 Ω·cm^2 are used for transport experiments. To determine the Papp in the absorptive direction (A-B), solution of test compound (50 μM) in HBSS is added to the donor compartment (apical side), while HBSS solution with 4% BSA is added to the receiver compartment (basolateral side). The apical volume was 0.075 mL, and the basolateral volume is 0.25 mL. The incubation period is 120 min. at 37° C. in an atmosphere of 5% CO2. At the end of the incubation period, samples from the donor and receiver sides are removed and an equal volume of MeCN is added for protein precipitation. The supernatants are collected after centrifugation (3000 rpm, Allegra X-14R Centrifuge from Beckman Coulter, Indianapolis, IN) for LCMS analysis. The permeability value is determined according to the equation:
Papp(cm/s)=(F*VD)/(SA*MD),
where the flux rate (F, mass/time) is calc. from the slope of cumulative amounts of compound of interest on the receiver side, SA is the surface area of the cell membrane, VD is the donor volume, and MD is the initial amount of the solution in the donor chamber.
The symbol “+” indicates a Caco-2 value of ≤0.5, “++” indicates a Caco-2 value of >0.5 but ≤1; and “+++” indicates a Caco-2 value of >1. “NA” indicates Caco-2 value not available.

KRAS G12D, sequence (P01116 1-188 isoform P01116-2 G12D): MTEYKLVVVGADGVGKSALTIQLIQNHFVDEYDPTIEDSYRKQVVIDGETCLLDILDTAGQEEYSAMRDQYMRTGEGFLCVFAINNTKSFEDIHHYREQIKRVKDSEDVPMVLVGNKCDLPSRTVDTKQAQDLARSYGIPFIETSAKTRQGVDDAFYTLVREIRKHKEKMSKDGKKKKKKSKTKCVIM

Row | SMILES | G12D_exchange (KRAS_G12D exchange assay IC50) (KRAS G12D) | G12V_exchange (KRAS_G12V exchange assay IC50) (KRAS G12V) | Papp A→B at 120 min, 50 μM [1] [×10⁻⁶ cm/s]
1 | Cc1nc2c(F)c(-c3cccc(Cl)c3Cl)c(CCC#N)cc2c2c1cc([C@H]1[C@H]3C[C@H](CN(c4ccc(Cl)c(Cl)c4)C3)N1C(=O)C1CC1)n2[C@H]1[C@H]2CN[C@@H]1C2 (atropisomer, axis not shown; (Ra)) [Example 15, 3-((Ra)-1-((1R,4R,5S)-2-azabicyclo[2.1.1]hexan-5-yl)-2-((1S,5R,7R)-6-(cyclopropanecarbonyl)-3-(3,4-dichlorophenyl)-3,6-diazabicyclo[3.2.1]octan-7-yl)-7-(2,3-dichlorophenyl)-6-fluoro-4-methyl-1H-pyrrolo[3,2-c]quinolin-8-yl)propanenitrile] | ††† | †††† | ≤ 0.5
2 | Cc1nc2c(F)c(-c3cccc(Cl)c3Cl)c(CCC#N)cc2c2c1cc([C@H]1[C@H]3C[C@H](CN(c4cccc(C#N)c4)C3)N1C(=O)C1CC1)n2[C@H]1[C@H]2CN[C@@H]1C2 (atropisomer, axis not shown; (Ra)) [Example 17, 3-((1S,5R,7R)-7-((Ra)-1-((1R,4R,5S)-2-azabicyclo[2.1.1]hexan-5-yl)-8-(2-cyanoethyl)-7-(2,3-dichlorophenyl)-6-fluoro-4-methyl-1H-pyrrolo[3,2-c]quinolin-2-yl)-6-(cyclopropanecarbonyl)-3,6-diazabicyclo[3.2.1]octan-3-yl)benzonitrile] | †† | † | ≤ 0.5
3 | Cc1nc2c(F)c(-c3cccc(Cl)c3Cl)c(CCC#N)cc2c2c1cc([C@H]1[C@H]3C[C@H](CN(c4cccc(Cl)c4)C3)N1C(=O)C1CC1)n2[C@H]1[C@H]2CN[C@@H]1C2 (atropisomer, axis not shown; (Ra)) [Example 19, 3-((Ra)-1-((1R,4R,5S)-2-azabicyclo[2.1.1]hexan-5-yl)-2-((1S,5R,7R)-3-(3-chlorophenyl)-6-(cyclopropanecarbonyl)-3,6-diazabicyclo[3.2.1]octan-7-yl)-7-(2,3-dichlorophenyl)-6-fluoro-4-methyl-1H-pyrrolo[3,2-c]quinolin-8-yl)propanenitrile] | †† | † | ≤ 0.5
4 | Cc1nc2c(F)c(-c3cccc(Cl)c3Cl)c(CCC#N)cc2c2c1cc([C@H]1[C@H]3C[C@H](CN(c4cccc(OC(F)(F)F)c4)C3)N1C(=O)C1CC1)n2[C@H]1[C@H]2CN[C@@H]1C2 (atropisomer, axis not shown; (Ra)) [Example 20, 3-((Ra)-1-((1R,4R,5S)-2-azabicyclo[2.1.1]hexan-5-yl)-2-((1S,5R,7R)-6-(cyclopropanecarbonyl)-3-(3-(trifluoromethoxy)phenyl)-3,6-diazabicyclo[3.2.1]octan-7-yl)-7-(2,3-dichlorophenyl)-6-fluoro-4-methyl-1H-pyrrolo[3,2-c]quinolin-8-yl)propanenitrile] | †† | † | ≤ 0.5
5 | Cc1nc2c(F)c(-c3cccc(Cl)c3Cl)c(CCC#N)cc2c2c1cc([C@H]1[C@H]3C[C@H](CN(c4cncc(C(F)(F)F)c4)C3)N1C(=O)C1CC1)n2[C@H]1[C@H]2CN[C@@H]1C2 (atropisomer, axis not shown; (Ra)) [Example 21, 3-((Ra)-1-((1R,4R,5S)-2-azabicyclo[2.1.1]hexan-5-yl)-2-((1S,5R,7R)-6-(cyclopropanecarbonyl)-3-(5-(trifluoromethyl)pyridin-3-yl)-3,6-diazabicyclo[3.2.1]octan-7-yl)-7-(2,3-dichlorophenyl)-6-fluoro-4-methyl-1H-pyrrolo[3,2-c]quinolin-8-yl)propanenitrile] | † | † | ≤ 0.5
6 | Cc1nc2c(F)c(-c3cccc(Cl)c3Cl)c(CCC#N)cc2c2c1cc([C@H]1[C@H]3C[C@H](CN(c4ccc(C(F)F)nc4)C3)N1C(=O)C1CC1)n2[C@H]1[C@H]2CN[C@@H]1C2 (atropisomer, axis not shown; (Ra)) [Example 22, 3-((Ra)-1-((1R,4R,5S)-2-azabicyclo[2.1.1]hexan-5-yl)-2-((1S,5R,7R)-6-(cyclopropanecarbonyl)-3-(6-(difluoromethyl)pyridin-3-yl)-3,6-diazabicyclo[3.2.1]octan-7-yl)-7-(2,3-dichlorophenyl)-6-fluoro-4-methyl-1H-pyrrolo[3,2-c]quinolin-8-yl)propanenitrile] | † | † | ≤ 0.5
7 | Cc1nc2c(F)c(-c3cccc(Cl)c3Cl)c(CCC#N)cc2c2c1cc([C@H]1[C@H]3C[C@H](CN(c4ccc(F)cc4)C3)N1C(=O)C1CC1)n2[C@H]1[C@H]2CN[C@@H]1C2 (atropisomer, axis not shown; (Ra)) [Example 23, 3-((Ra)-1-((1R,4R,5S)-2-azabicyclo[2.1.1]hexan-5-yl)-2-((1S,5R,7R)-6-(cyclopropanecarbonyl)-3-(4-fluorophenyl)-3,6-diazabicyclo[3.2.1]octan-7-yl)-7-(2,3-dichlorophenyl)-6-fluoro-4-methyl-1H-pyrrolo[3,2-c]quinolin-8-yl)propanenitrile] | † | † | ≤ 0.5
8 | COc1ccc(N2C[C@@H]3C[C@H](C2)N(C(=O)C2CC2)[C@H]3c2cc3c(C)nc4c(F)c(-c5cccc(Cl)c5Cl)c(CCC#N)cc4c3n2[C@H]2[C@H]3CN[C@@H]2C3)cn1 (atropisomer, axis not shown; (Ra)) [Example 24, 3-((Ra)-1-((1R,4R,5S)-2-azabicyclo[2.1.1]hexan-5-yl)-2-((1S,5R,7R)-6-(cyclopropanecarbonyl)-3-(6-methoxypyridin-3-yl)-3,6-diazabicyclo[3.2.1]octan-7-yl)-7-(2,3-dichlorophenyl)-6-fluoro-4-methyl-1H-pyrrolo[3,2-c]quinolin-8-yl)propanenitrile] | †† | † | ≤ 0.5
9 | Cc1nc2c(F)c(-c3cccc(Cl)c3Cl)c(CCC#N)cc2c2c1cc([C@H]1[C@H]3C[C@H](CN(c4ccc(OC(F)F)cc4)C3)N1C(=O)C1CC1)n2[C@H]1[C@H]2CN[C@@H]1C2 (atropisomer, axis not shown; (Ra)) [Example 25, 3-((Ra)-1-((1R,4R,5S)-2-azabicyclo[2.1.1]hexan-5-yl)-2-((1S,5R,7R)-6-(cyclopropanecarbonyl)-3-(4-(difluoromethoxy)phenyl)-3,6-diazabicyclo[3.2.1]octan-7-yl)-7-(2,3-dichlorophenyl)-6-fluoro-4-methyl-1H-pyrrolo[3,2-c]quinolin-8-yl)propanenitrile] | †† | † | ≤ 0.5
